Assay results from publication PMC4424277, “Astrocytosis precedes amyloid plaque deposition in Alzheimer APPswe transgenic mouse brain: a correlative positron emission tomography and in vitro imaging study” (European Journal of Nuclear Medicine and Molecular Imaging, 2015).

Target: T1, beta-amyloid (Aβ) (Homo sapiens, UniProt P05067)
T1 construct: gene APP; Aβ plaques (fibrillar deposits) in cortical homogenates of APPswe (Tg2576) mice expressing APP with the Swedish mutation
Assay: radioligand saturation binding in APPswe mouse cortical homogenates; autoradiography

T1 sequence (P05067 18-770): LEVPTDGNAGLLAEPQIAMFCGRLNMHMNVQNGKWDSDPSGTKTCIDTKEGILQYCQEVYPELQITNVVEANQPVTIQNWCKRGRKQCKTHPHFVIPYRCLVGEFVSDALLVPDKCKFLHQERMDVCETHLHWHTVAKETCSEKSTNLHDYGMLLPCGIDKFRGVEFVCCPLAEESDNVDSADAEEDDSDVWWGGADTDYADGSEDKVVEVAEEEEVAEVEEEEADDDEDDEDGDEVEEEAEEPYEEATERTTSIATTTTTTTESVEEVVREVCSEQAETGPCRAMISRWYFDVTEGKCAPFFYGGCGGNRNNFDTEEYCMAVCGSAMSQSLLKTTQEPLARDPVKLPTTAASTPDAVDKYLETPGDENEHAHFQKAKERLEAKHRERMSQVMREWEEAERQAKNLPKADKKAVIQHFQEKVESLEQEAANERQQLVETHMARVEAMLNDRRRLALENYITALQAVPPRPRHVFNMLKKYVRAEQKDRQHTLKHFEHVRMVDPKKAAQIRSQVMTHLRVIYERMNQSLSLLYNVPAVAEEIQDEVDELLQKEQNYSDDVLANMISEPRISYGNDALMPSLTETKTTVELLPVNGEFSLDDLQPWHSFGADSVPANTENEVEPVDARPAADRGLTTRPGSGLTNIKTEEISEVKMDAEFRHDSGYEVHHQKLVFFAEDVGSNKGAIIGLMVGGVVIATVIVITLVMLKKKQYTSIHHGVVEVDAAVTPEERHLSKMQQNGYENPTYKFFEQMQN

## CNc1ccc(-c2nc3ccc(O)cc3s2)cn1 [AZD2184]
  Kd: 10.6 nM
